The values below come from US20150196562A1, “FORMULATIONS OF 3-(5-AMINO-2-METHYL-4-OXO-4H-QUINAZOLIN-3-YL)-PIPERIDINE-2,6-DIONE” (Celgene Corporation, priority 2014, published 2015).

The data set in a line: Degradation of Compound A by hydrolysis. It counts as physicochemical. The conditions noted are these: water. An excerpt:
Also provided herein are anhydrous pharmaceutical compositions and dosage forms including an active ingredient, since water can facilitate the degradation of some compounds. For example, the addition of water (e.g., 5 percent) is widely accepted in the pharmaceutical arts as a means of simulating shelf-life, i.e., long-term storage in order to determine characteristics such as shelf-life or the stability of formulations over time. See, e.g., Jens T. Carstensen, Drug Stability: Principles & Practice, 2d. Ed., Marcel Dekker, NY, N.Y., 1995, pp. 379-80. In effect, water and heat accelerate decomposition. Thus, the effect of water on a formulation can be of great significance since moisture and/or humidity are commonly encountered during manufacture, handling, packaging, storage, shipment, and use of formulations.

On to `Cc1nc2cccc(N)c2c(=O)n1C1CCC(=O)NC1=O` (stereo not shown) [Compound A, 3-(5-amino-2-methyl-4-oxo-4H-quinazolin-3-yl)-piperidine-2,6-dione], for which the degradation by hydrolysis entry is “easily degraded by hydrolysis”.
